Laboratory results: patent US7563774B2, “Combination of FBPase inhibitors and antidiabetic agents useful for the treatment of diabetes” (Metabasis Therapeutics, Inc., priority 2000, dated 2009)
Read-outs that look alike come from different tables or passages of the source.

What was measured:
Goto-Kakizaki rats = assay: Acute combination treatment of an alpha glucosidase inhibitor and an FBPase inhibitor in Goto-Kakizaki rats (Example EE); format: in vivo, rat
Method: Goto-Kakizaki rats, an animal model of lean NIDDM, were purchased at 5 weeks of age from Charles River Japan, Inc. (Tokyo, Japan). The rats were maintained under standard vivarium conditions (24-26° C., 12-hour light cycle, 12-hour dark cycle) and received standard chow and water ad libitum. At 18 weeks of age, animals were divided into 4 groups (n=5/group). The treatment groups were control, Compound J, acarbose (Bayer, Japan), and the combination of Compound J and acarbose. All animals were given 1 g/kg of corn starch by oral gavage. […] Acarbose was administered orally at a dose of 1 mg/kg simultaneously with starch. Blood glucose levels in tail vein samples were measured by means of a Glucoloader-F, an automatic glucose analyzer, (A&T Co., Ltd., Tokyo, Japan).

[1] = tested on: Sprague-Dawley or Wistar rats; details: fasted rat, cited from earlier work; for ED50: 2 h
[2] = tested on: Zucker Diabetic Fatty rats; assay: Acute combination treatment of an insulin secretagogue and Compound J in the ZDF rat (Example X); format: in vivo
Method: Experimental Protocol: Zucker Diabetic Fatty rats (9.5 weeks of age) were fasted for 5 hours starting at 8 am. The animals were then divided into 4 treatments groups with statistically similar baseline blood glucose levels. Test compounds were administered by oral gavage. The treatments were as shown below:
One hour after saline or drug administration, all animals received a simulated meal in the form of an oral bolus of glucose (1 g/kg). Blood glucose was then monitored at regular time intervals for 3 hours. Test compounds were prepared as suspensions in 0.1% carboxymethylcellulose. Blood samples were obtained by nicking of a tail vein. Blood glucose was measured by means of a HemoCue glucose analyzer according to the manufacturer's instructions (HemoCue Inc., Mission Viejo, Calif.). Results are expressed as the mean ± standard error of the mean for all values.

ZDF rats = assay: Chronic combination treatment of an insulin secretagogue and an FBPase inhibitor in the ZDF rat (Example Y); format: in vivo; details: maximal doses, 2 to 12 weeks
From the text: Male ZDF rats are purchased at 7 weeks of age from Genetics Models Inc. (Indianapolis, Ind.). […] At 8 weeks of age, animals are divided into 4 treatment groups (n=8/group). The treatments are control, Compound J, glyburide, and the combination of Compound J and glyburide. […] Other parameters measured by standard assays include: lactate, glycerol, alanine, triglycerides, free fatty acids, ketone bodies, hepatic and muscle glycogen, cholesterol, VLDL, HDL, hemoglobin Alc, body weight, food and water intake, as well as other measures of carbohydrate, lipid, and protein metabolism. […] Differences between groups are evaluated ANOVA using an appropriate post hoc test. Results are considered significant with p<0.05.

C57BL/KsJ db/db mice [3] = assay: Acute combination treatment of a biguanide and an FBPase inhibitor in db/db mice (Example DD); format: in vivo, mouse
Method: Male C57BL/KsJ db/db mice were purchased at 5 weeks of age from Clea Japan, Inc. (Tokyo, Japan). The mice were maintained under standard vivarium conditions (24-26° C., 12-hour light cycle, 12-hour dark cycle) and received standard chow and water ad libitum. […] The treatment groups were control, compound J , metformin, and the combination of compound J and metformin. […] Food was removed after treatment. Blood glucose levels in tail vein samples were measured by means of a Glucoloader-F, an automatic glucose analyzer, (A&T Co., Ltd., Tokyo, Japan).

C57BL/KsJ db/db mice [4] = assay: Acute combination treatment of insulin and Compound G in db/db mice (Example Z); format: in vivo, mouse
Method: Male C57BL/KsJ db/db mice were purchased at 5 weeks of age from Clea Japan, Inc. (Tokyo, Japan). The mice were maintained under standard vivarium conditions (24-26° C., 12-hour light cycle, 12-hour dark cycle) and received standard chow and water ad libitum. At 20 weeks of age, animals were divided into 4 groups (n=6/group). The treatment groups were control, compound G, insulin, and the combination of compound G and insulin. […] Insulin (human recombinant insulin, Penfill R300, Novo Nordisk, Denmark) was injected subcutaneously at a dose of 1.5 U/kg. Food was removed after treatment. Blood glucose levels in tail vein samples were measured by means of a Glucoloader-F, an automatic glucose analyzer, (A&T Co., Ltd., Tokyo, Japan).

C57BL/KsJ db/db mice [5] = assay: Chronic combination treatment of insulin and Compound G in db/db mice (Example AA); format: in vivo, mouse
Method: Male C57BL/KsJ db/db mice were purchased at 5 weeks of age from Clea Japan, Inc. (Tokyo, Japan). The mice were maintained under standard vivarium conditions (24-26° C., 12-hour light cycle, 12-hour dark cycle) and received standard chow and water ad libitum. At 16 weeks of age, animals were divided into 2 groups (n=5 or 9-10/group). Both groups were subcutaneously injected with human recombinant insulin (Penfill N300, Novo Nordisk, Denmark) on a daily basis to adjust plasma glucose levels to the target range of 250 to 300 mg/dL.

C57BL/KsJ db/db mice [6] = assay: Chronic combination treatment of insulin and Compound J in db/db mice (Example BB); format: in vivo, mouse
Method: Male C57BL/KsJ db/db mice were purchased at 5 weeks of age from Clea Japan, Inc. (Tokyo, Japan). […] At 19 weeks of age, animals were divided into 2 groups (n=6/group). […] Blood glucose levels in tail vein samples were measured by means of a Glucoloader-F, an automatic glucose analyzer, (A&T Co., Ltd., Tokyo, Japan).

Goto-Kakizaki (GK) rats = assay: Acute combination treatment of insulin and an FBPase inhibitor in the Goto-Kakizaki rat (Example CC); format: in vivo
Method: Male Goto-Kakizaki (GK) rats were purchased at 9 weeks of age from Charles River Japan, Inc. (Tokyo, Japan). The rats were maintained under standard vivarium conditions (24-26° C., 12-hour light cycle, 12-hour dark cycle) and received standard chow and water ad libitum. At 48 weeks of age, animals were divided into 4 groups (n=6/group) after an overnight fast. The treatment groups were control, Compound J, insulin, and combination of Compound J and insulin. […] Insulin (human recombinant insulin, Penfill N300, Novo Nordisk, Denmark) was subcutaneously injected at the dose of 1.5 U/kg. Blood glucose levels in tail vein samples were measured by means of a Glucoloader-F, an automatic glucose analyzer, (A&T Co., Ltd., Tokyo, Japan).

## C[C@H]1O[C@H](O[C@H]2[C@H](O)[C@@H](O)[C@@H](O[C@H]3[C@H](O)[C@@H](O)C(O)O[C@@H]3CO)O[C@@H]2CO)[C@H](O)[C@@H](O)[C@@H]1N[C@H]1C=C(CO)[C@@H](O)[C@H](O)[C@H]1O (some centres unmarked) [Acarbose, acarbose, reference compound]
Goto-Kakizaki rats; 0 min
  Plasma Glucose, relative value (% of pre-treatment value): (129.4 +/− 2.8) %
Goto-Kakizaki rats; 0 min, Compound J 10 mg/kg p.o. at −60 min, acarbose 1 mg/kg p.o. with starch
  Plasma Glucose: 226.4 ± 5.3 mg/dL
Goto-Kakizaki rats; 30 min after starch
  Plasma Glucose: 243.8 ± 8.5 mg/dL
  Plasma Glucose, relative value (% of pre-treatment value): (139.5 +/− 6.0) %
Goto-Kakizaki rats; 60 min after starch
  Plasma Glucose: 247.2 ± 8.2 mg/dL
  Plasma Glucose, relative value (% of pre-treatment value): (141.3 +/− 4.9) %
Goto-Kakizaki rats; 120 min after starch
  Plasma Glucose: 209.4 ± 5.9 mg/dL
  Plasma Glucose, relative value (% of pre-treatment value): (119.9 +/− 4.9) %
Goto-Kakizaki rats; 240 min after starch
  Plasma Glucose: 164.2 ± 10.7 mg/dL
  Plasma Glucose, relative value (% of pre-treatment value): (93.5 +/− 4.7) %
Goto-Kakizaki rats; −60 min
  Plasma Glucose, relative value (% of pre-treatment value): (100.0 +/− 0.0) %
Goto-Kakizaki rats; −60 min relative to starch 1 g/kg
  Plasma Glucose: 175.4 ± 5.9 mg/dL

## CCC1=C(C)CN(C(=O)NCCc2ccc(S(=O)(=O)NC(=O)N[C@H]3CC[C@H](C)CC3)cc2)C1=O [Glimepiride]
[1]
  ED50: 0.182 (2 h) mg/kg
[1]; Dose 0.1
  Gluc low,%: −18%

## COc1ccc(Cl)cc1C(=O)NCCc1ccc(S(=O)(=O)NC(=O)NC2CCCCC2)cc1 [Glyburide, glyburide, reference compound]
[2]; glyburide 100 mg/kg, Compound J 300 mg/kg p.o.
  blood glucose after oral glucose load (FIG. 1): suppressed the rise in blood glucose levels
[2]; initial 4 hours post drug, glyburide 100 mg/kg, Compound J 300 mg/kg p.o., oral glucose 1 g/kg
  AUC glucose: 1324 ± 132 mg·h/dL
[2]; pilot studies, ZDF rat
  maximally efficacious dose: 100 mg/kg
ZDF rats
  glycemic control: becomes less and less effective over time
[1]
  ED50: 0.255 (2 h) mg/kg
[1]; Dose 0.3
  Gluc low,%: −25%

## CN(C)C(=N)N=C(N)N [Metformin, metformin, reference compound]
C57BL/KsJ db/db mice [3]; after 2 hour
  Plasma Glucose, % of pretreatment value: (67.7 +/− 1.9) %
C57BL/KsJ db/db mice [3]; after 2 hour, Compound J and/or metformin 150 mg/kg p.o.
  Plasma Glucose: 347.0 ± 21.2 mg/dL
C57BL/KsJ db/db mice [3]; after 4 hour
  Plasma Glucose: 346.5 ± 34.6 mg/dL
  Plasma Glucose, % of pretreatment value: (66.4 +/− 3.1) %
C57BL/KsJ db/db mice [3]; after 6 hour
  Plasma Glucose: 348.3 ± 30.7 mg/dL
  Plasma Glucose, % of pretreatment value: (67.7 +/− 4.1) %
C57BL/KsJ db/db mice [3]; after 8 hour
  Plasma Glucose: 407.8 ± 40.0 mg/dL
  Plasma Glucose, % of pretreatment value: (79.1 +/− 5.6) %
C57BL/KsJ db/db mice [3]; before (0 hour)
  Plasma Glucose: 515.7 ± 37.0 mg/dL
  Plasma Glucose, % of pretreatment value: (100.0 +/− 0.0) %
C57BL/KsJ db/db mice [3]; db/db mice, acute
  blood glucose lowering: lowered blood glucose significantly relative to controls

## CCOc1cc(CC(=O)N[C@@H](CC(C)C)c2ccccc2N2CCCCC2)ccc1C(=O)O [Repaglinide]
[1]
  ED50: 0.01 (2 h) mg/kg
[1]; Dose 0.01
  Gluc low,%: −21%

## Insulin: human recombinant insulin, Penfill R300 (Example Z) or Penfill N300 (Examples AA, BB, CC), Novo Nordisk
C57BL/KsJ db/db mice [4]; after 1 hour
  Plasma Glucose, % of pretreatment values: (54.2 +/− 4.1) %
C57BL/KsJ db/db mice [4]; after 1 hour, Compound G 200 mg/kg p.o., insulin 1.5 U/kg s.c.
  Plasma Glucose: 410.8 ± 34.4 mg/dL
C57BL/KsJ db/db mice [4]; after 4 hours
  Plasma Glucose: 540.3 ± 35.9 mg/dL
  Plasma Glucose, % of pretreatment values: (71.4 +/− 4.1) %
C57BL/KsJ db/db mice [4]; after […]
  Plasma Glucose: 463.2 ± 40.2 mg/dL
  Plasma Glucose, % of pretreatment values: (61.1 +/− 4.9) %
C57BL/KsJ db/db mice [4]; before (0 hour)
  Plasma Glucose: 756.2 ± 15.2 mg/dL
  Plasma Glucose, % of pretreatment values: (100.0 +/− 0.0) %
C57BL/KsJ db/db mice [4]; db/db mice, acute
  plasma glucose lowering: improved hyperglycemia within 2.5 hours
C57BL/KsJ db/db mice [5]; after 1 week
  Body Weight: 50.7 ± 1.5 g
  Insulin Dose required to adjust plasma glucose to 250-300 mg/dL: 753 +/− 72 U/kg
C57BL/KsJ db/db mice [5]; after 1 week, insulin adjusted daily, Compound G 0.2% food admixture
  Plasma Glucose: 297.1 ± 46.0 mg/dL
C57BL/KsJ db/db mice [5]; after 2 weeks
  Body Weight: 54.3 ± 1.2 g
  Insulin Dose required to adjust plasma glucose to 250-300 mg/dL: 492 +/− 68 U/kg
  Plasma Glucose: 375.6 ± 53.5 mg/dL
C57BL/KsJ db/db mice [5]; after 3 weeks
  Body Weight: 57.4 ± 1.6 g
  Insulin Dose required to adjust plasma glucose to 250-300 mg/dL: 306 +/− 67 U/kg
  Plasma Glucose: 282.4 ± 43.1 mg/dL
C57BL/KsJ db/db mice [5]; before (0 week)
  Body Weight: 43.4 ± 2.2 g
  Insulin Dose required to adjust plasma glucose to 250-300 mg/dL: 548 +/− 18 U/kg
  Plasma Glucose: 736.5 ± 17.0 mg/dL
C57BL/KsJ db/db mice [5]; db/db mice, 3 weeks
  body weight increase: increased body weight remarkably
C57BL/KsJ db/db mice [6]; after 1 week
  Body Weight: 57.9 ± 1.3 g
  Insulin Dose required to achieve target blood glucose levels: 495 +/− 32 U/kg
C57BL/KsJ db/db mice [6]; after 1 week, insulin adjusted daily, Compound J 0.2% food admixture
  Plasma Glucose: 408.8 ± 15.3 mg/dL
C57BL/KsJ db/db mice [6]; after 2 weeks
  Body Weight: 59.7 ± 1.3 g
  Insulin Dose required to achieve target blood glucose levels: 699 +/− 63 U/kg
  Plasma Glucose: 447.7 ± 17.6 mg/dL
C57BL/KsJ db/db mice [6]; after 3 weeks
  Body Weight: 61.4 ± 1.2 g
  Insulin Dose required to achieve target blood glucose levels: 760 +/− 95 U/kg
  Plasma Glucose: 396.3 ± 39.3 mg/dL
C57BL/KsJ db/db mice [6]; after 4 weeks
  Body Weight: 64.2 ± 1.0 g
  Insulin Dose required to achieve target blood glucose levels: 802 +/− 129 U/kg
  Plasma Glucose: 316.7 ± 17.2 mg/dL
C57BL/KsJ db/db mice [6]; before (0 week)
  Body Weight: 54.9 ± 1.4 g
  Insulin Dose required to achieve target blood glucose levels: 0 +/− 0 U/kg
  Plasma Glucose: 617.2 ± 28.1 mg/dL
C57BL/KsJ db/db mice [6]; db/db mice, 4 weeks of treatment
  body weight gain: resulted in an increase in body weight
Goto-Kakizaki (GK) rats; GK rats, acute
  plasma glucose lowering: decreased plasma glucose within 2 hours
Goto-Kakizaki (GK) rats; after 2 hour
  Plasma Glucose, % of before: (55.0 +/− 11.0) %
Goto-Kakizaki (GK) rats; after 2 hour, Compound J 50 mg/kg p.o., insulin 1.5 U/kg s.c.
  Plasma Glucose: 88.8 ± 16.8 mg/dL
Goto-Kakizaki (GK) rats; after 4 hours
  Plasma Glucose: 71.3 ± 20.9 mg/dL
  Plasma Glucose, % of before: (43.9 +/− 13.3) %
Goto-Kakizaki (GK) rats; after 6 hours
  Plasma Glucose: 90.7 ± 19.7 mg/dL
  Plasma Glucose, % of before: (55.4 +/− 12.4) %
Goto-Kakizaki (GK) rats; before (0 hour)
  Plasma Glucose: 163.7 ± 5.8 mg/dL
  Plasma Glucose, % of before: (100.0 +/− 0.0) %
